Data on 2 compounds can be found in paper PMC9269301, “Phytochemical Analysis, Antioxidant, Antimicrobial, and Cytotoxic Activity of Different Extracts of Xanthoparmelia stenophylla Lichen from Stara Planina, Serbia” (Plants, 2022).

Holding throughout (type): biochemical
Conditions in all cases: mean ± SD, triplicate

The nature of test [1]: Superoxide anion radical scavenging activity (NBT/NADH/PMS). On the procedure:
All chemicals for the antioxidant activity test were purchased from Sigma Aldrich. All measurements were conducted in triplicate, and a Shimadzu UV-1800 spectrophotometer was used for all measurements during antioxidant activity experiments. The IC50 value was used for comparing different radical scavenging effects between investigated extracts, isolated compounds, and positive controls. […] [75] with modifications. […] To initiate the reaction, 0.1 mL of phenazine methosulfate (PMS) solution ([…] in 0.1 M phosphate buffer at pH 7.4) was added to each tube. The mixture was incubated at room temperature for 5 min, and then the absorbance was measured at 560 nm relative to the blank. Ascorbic acid, gallic acid, and Trolox were used as positive controls, and a decrease in absorbance indicated increased superoxide anion radical scavenging activity. […] Ac stands for absorbance of the control (which contains all reagents, except the tested extract or compound), and As is the absorbance of the sample.

Test [2] is described as follows: Hydroxyl radical scavenging activity (2-deoxyribose). As for the experimental part: All chemicals for the antioxidant activity test were purchased from Sigma Aldrich. All measurements were conducted in triplicate, and a Shimadzu UV-1800 spectrophotometer was used for all measurements during antioxidant activity experiments. The IC50 value was used for comparing different radical scavenging effects between investigated extracts, isolated compounds, and positive controls. The ability to inhibit non-site-specific peroxidation mediated by hydroxyl radicals for […], and XSH was determined using the method previously described in the literature. During the experiment, in a reaction mixture that contained 500 μL of 5.6 mM 2-deoxy-D-ribose in KH2PO4-NaOH buffer (50 mM, pH 7.4), 100 μL of 1.0 mM aqueous ascorbic acid, 100 μL of 1.0 mM H2O2, and 200 μL of premixed solution of 100 μM FeCl3 and […] EDTA (1:1 v/v), 100 μL of extract dissolved in water was added. The tubes were vigorously shaken, vortexed, and incubated for 30 min at 50 °C. […] The mixture was vortexed again and heated in a water bath for 30 min at 50 °C. […] Ac stands for absorbance of the control (which contains all reagents, except the tested extract or compound), and As is the absorbance of the sample.

Test [3] can be described thus: DPPH radical scavenging activity. As for the experimental part:
All chemicals for the antioxidant activity test were purchased from Sigma Aldrich. All measurements were conducted in triplicate, and a Shimadzu UV-1800 spectrophotometer was used for all measurements during antioxidant activity experiments. The IC50 value was used for comparing different radical scavenging effects between investigated extracts, isolated compounds, and positive controls. […] [71] with certain modifications. […] The solution was prepared ex tempore and stored in a tinted bottle in the refrigerator until the experiments were performed. […] The reaction mixture was vortexed and allowed to incubate in the dark for one hour, after which the absorbance was measured at 517 nm relative to the blank. […] Ac stands for absorbance of the control (which contains all reagents, except the tested extract or compound), and As is the absorbance of the sample.
A general note: DPPH is a stable violet radical that fades when it is reduced.

Marks after values point to notes of the source that are not given here.

`O=C1O[C@H]([C@@H](O)CO)C(O)=C1O` [Ascorbic acid, ascorbic acid]: the “Superoxide Anion Radical Scavenging Activity (IC50)” value in test [1] is 105.62 ± 0.84 ^c,d,e,f µg/mL. Further, the “Hydroxyl Radical Scavenging Activity (IC50)” value in test [2] is 155.91 ± 0.64 ^a,d,e µg/mL. Further, the “DPPH Radical Scavenging Activity (IC50)” value in test [3] is given as 6.31 ± 0.78 ^a,b,c,d µg/mL.

With `O=C(O)c1cc(O)c(O)c(O)c1` [Gallic acid, gallic acid], in test [1], the “Superoxide Anion Radical Scavenging Activity (IC50)” value is reported as 68.55 ± 0.45 ^a,b,c,d,e µg/mL. The “Hydroxyl Radical Scavenging Activity (IC50)” value in test [2] was 45.12 ± 0.51 ^a,b,c,d,e µg/mL. In addition, the “DPPH Radical Scavenging Activity (IC50)” value in test [3] is reported as 3.72 ± 0.65 ^a,b,c,d,e µg/mL.
